Data as given in patent US12559529B2, “NPY2 receptor agonists” (Boehringer Ingelheim International GmbH, priority 2019, dated 2026).

biological target: T1, Human Neuropeptide Y2 Receptor (Homo sapiens, UniProt P49146); assay: Radioligand binding competition assay (RLB); settings: Table 3; human 125I-PYY (1-36) 0.02 nM, Y2 receptor membranes; read-out: Ki
T1 construct: purchased CHEMICON HTS066M
T1 sequence (P49146 1-381): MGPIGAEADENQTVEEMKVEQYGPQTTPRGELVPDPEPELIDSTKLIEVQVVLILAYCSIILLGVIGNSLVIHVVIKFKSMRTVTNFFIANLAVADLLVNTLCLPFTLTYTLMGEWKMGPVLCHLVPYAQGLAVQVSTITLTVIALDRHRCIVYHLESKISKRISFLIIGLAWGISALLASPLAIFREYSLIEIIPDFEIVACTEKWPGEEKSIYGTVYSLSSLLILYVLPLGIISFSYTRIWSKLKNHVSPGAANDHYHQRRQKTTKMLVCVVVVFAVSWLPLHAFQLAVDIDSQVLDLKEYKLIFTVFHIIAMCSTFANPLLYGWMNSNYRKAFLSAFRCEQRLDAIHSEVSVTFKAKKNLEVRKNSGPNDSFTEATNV
Outline: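 Membranes from cells expressing human Y2 receptor (0.5 μg protein/well) were incubated with radioligand and serially diluted peptides in 50 mM HEPES, 5 mM MgCl2, 1 mM CaCl2, 0.2% ovalbumin, pH 7.4, for 2 h at room temperature with shaking. Bound radioactivity was collected by filtration and counted; IC50 from sigmoidal nonlinear regression.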

Row | Ki [nM] | Structure (SMILES)
1 | 1.1 | CC(C)CC(=O)N[C@@H](C)C(=O)N1CCC[C@H]1C(=O)N[C@@H](CCC(=O)O)C(=O)N[C@@H](CCCCNC(=O)COCCOCCNC(=O)COCCOCCNC(=O)CC[C@H](NC(=O)CCCCCCCCCCCCCCCCC(=O)O)C(=O)O)C(=O)N1CCC[C@H]1C(=O)N[C@@H](CCC(=O)O)C(=O)N[C@@H](CCC(=O)O)C(=O)N[C@@H](CC(=O)O)C(=O)N[C@@H](C)C(=O)N[C@@H](CO)C(=O)N1CCC[C@H]1C(=O)N[C@@H](CCC(=O)O)C(=O)N[C@@H](CCC(=O)O)C(=O)N[C@@H](CC(C)C)C(=O)N[C@@H](CCC(N)=O)C(=O)N[C@@H](CCCCN)C(=O)N[C@@H](Cc1ccc(O)cc1)C(=O)N[C@@H](Cc1ccc(O)cc1)C(=O)N[C@H](C(=O)N[C@@H](C)C(=O)N[C@@H](CC(C)C)C(=O)N[C@@H](CCCNC(=N)N)C(=O)N[C@@H](Cc1c[nH]cn1)C(=O)N[C@@H](Cc1ccc(O)cc1)C(=O)N[C@@H](Cc1ccc(O)cc1)C(=O)N[C@@H](CC(N)=O)C(=O)N[C@@H](Cc1c[nH]c2ccccc12)C(=O)N[C@@H](CC(C)C)C(=O)N[C@H](C(=O)N[C@@H](CCCNC(=N)N)C(=O)N[C@@H](CCC(N)=O)C(=O)N[C@@H](CCCNC(=N)N)C(=O)N[C@@H](Cc1ccc(O)cc1)C(N)=O)[C@@H](C)O)C(C)C [Compound 107, N{alpha-4}-(3-methylbutanoyl)-N{epsilon-7}-[2-(2-{2-[2-(2-{2-[(4S)-4-carboxy-4-(17-carboxyheptadecanamido)butanamido]ethoxy}ethoxy)acetamido]ethoxy}ethoxy)acetamido]-[4A,7K,9E,18Q,19K,22V,23A,28Y,30W,31L]hPYY (4-36)]
2 | 0.94 | CC(C)CC(=O)N[C@@H](C)C(=O)N1CCC[C@H]1C(=O)N[C@@H](CCC(=O)O)C(=O)N[C@@H](CCCCNC(=O)COCCOCCNC(=O)COCCOCCNC(=O)CC[C@H](NC(=O)CCCCCCCCCCCCCCCCC(=O)O)C(=O)O)C(=O)N1CCC[C@H]1C(=O)N[C@@H](CCC(=O)O)C(=O)N[C@@H](CCC(=O)O)C(=O)N[C@@H](C)C(=O)N[C@@H](C)C(=O)N[C@@H](CO)C(=O)N1CCC[C@H]1C(=O)N[C@@H](CCC(=O)O)C(=O)N[C@@H](CCC(=O)O)C(=O)N[C@@H](CC(C)C)C(=O)N[C@@H](CCC(N)=O)C(=O)N[C@@H](CCCNC(=N)N)C(=O)N[C@@H](Cc1ccc(O)cc1)C(=O)N[C@@H](Cc1ccc(O)cc1)C(=O)N[C@H](C(=O)N[C@@H](CO)C(=O)N[C@@H](CC(C)C)C(=O)N[C@@H](CCCNC(=N)N)C(=O)N[C@@H](Cc1c[nH]cn1)C(=O)N[C@@H](Cc1ccc(O)cc1)C(=O)N[C@@H](Cc1ccc(O)cc1)C(=O)N[C@@H](CC(N)=O)C(=O)N[C@@H](Cc1c[nH]c2ccccc12)C(=O)N[C@@H](CC(C)C)C(=O)N[C@H](C(=O)N[C@@H](CCCNC(=N)N)C(=O)N[C@@H](CCC(N)=O)C(=O)N[C@@H](CCCNC(=N)N)C(=O)N[C@@H](Cc1ccc(O)cc1)C(N)=O)[C@@H](C)O)C(C)C [Compound 109, N{alpha-4}-(3-methylbutanoyl)-N{epsilon-7}-[2-(2-{2-[2-(2-{2-[(4S)-4-carboxy-4-(17-carboxyheptadecanamido)butanamido]ethoxy}ethoxy)acetamido]ethoxy}ethoxy)acetamido]-[4A,7K,9E,11A,18Q,22V,28Y,30W,31L]hPYY (4-36)]
3 | 5.43 | CC(C)CC(=O)N[C@@H](C)C(=O)N1CCC[C@H]1C(=O)N[C@@H](CCC(=O)O)C(=O)N[C@@H](CCCCNC(=O)COCCOCCNC(=O)COCCOCCNC(=O)CC[C@H](NC(=O)CCCCCCCCCCCCCCCCC(=O)O)C(=O)O)C(=O)N1CCC[C@H]1C(=O)N[C@@H](CCC(=O)O)C(=O)N[C@@H](CCC(=O)O)C(=O)N[C@@H](CC(=O)O)C(=O)N[C@@H](C)C(=O)N[C@@H](CCC(=O)O)C(=O)N1CCC[C@H]1C(=O)N[C@@H](CCC(=O)O)C(=O)N[C@@H](CCC(=O)O)C(=O)N[C@@H](CC(C)C)C(=O)N[C@@H](CCC(N)=O)C(=O)N[C@@H](CCCNC(=N)N)C(=O)N[C@@H](Cc1ccc(O)cc1)C(=O)N[C@@H](Cc1ccc(O)cc1)C(=O)N[C@H](C(=O)N[C@@H](CCC(=O)O)C(=O)N[C@@H](CC(C)C)C(=O)N[C@@H](CCCNC(=N)N)C(=O)N[C@@H](Cc1c[nH]cn1)C(=O)N[C@@H](Cc1ccc(O)cc1)C(=O)N[C@@H](Cc1ccc(O)cc1)C(=O)N[C@@H](CC(N)=O)C(=O)N[C@@H](Cc1c[nH]c2ccccc12)C(=O)N[C@@H](CC(C)C)C(=O)N[C@H](C(=O)N[C@@H](CCCNC(=N)N)C(=O)N[C@@H](CCC(N)=O)C(=O)N[C@@H](CCCNC(=N)N)C(=O)N[C@@H](Cc1ccc(O)cc1)C(N)=O)[C@@H](C)O)C(C)C [Compound 111, N{alpha-4}-(3-methylbutanoyl)-N{epsilon-7}-[2-(2-{2-[2-(2-{2-[(4S)-4-carboxy-4-(17-carboxyheptadecanamido)butanamido]ethoxy}ethoxy)acetamido]ethoxy}ethoxy)acetamido]-[4A,7K,9E,13E,18Q,22V,23E,28Y,30W,31L]hPYY (4-36)]
4 | 3.32 | CC(C)CC(=O)N[C@@H](C)C(=O)N1CCC[C@H]1C(=O)N[C@@H](CCC(=O)O)C(=O)N[C@@H](CCCCNC(=O)COCCOCCNC(=O)COCCOCCNC(=O)CC[C@H](NC(=O)CCCCCCCCCCCCCCCCC(=O)O)C(=O)O)C(=O)N1CCC[C@H]1C(=O)N[C@@H](CCC(=O)O)C(=O)N[C@@H](CCC(=O)O)C(=O)N[C@@H](CCC(=O)O)C(=O)N[C@@H](C)C(=O)N[C@@H](CO)C(=O)N1CCC[C@H]1C(=O)N[C@@H](CCC(=O)O)C(=O)N[C@@H](CCC(=O)O)C(=O)N[C@@H](CC(C)C)C(=O)N[C@@H](CCC(N)=O)C(=O)N[C@@H](CCCNC(=N)N)C(=O)N[C@@H](Cc1ccc(O)cc1)C(=O)N[C@@H](Cc1ccc(O)cc1)C(=O)N[C@H](C(=O)N[C@H](C(=O)N[C@@H](CC(C)C)C(=O)N[C@@H](CCCNC(=N)N)C(=O)N[C@@H](Cc1c[nH]cn1)C(=O)N[C@@H](Cc1ccc(O)cc1)C(=O)N[C@@H](Cc1ccc(O)cc1)C(=O)N[C@@H](CC(N)=O)C(=O)N[C@@H](Cc1c[nH]c2ccccc12)C(=O)N[C@@H](CC(C)C)C(=O)N[C@H](C(=O)N[C@@H](CCCNC(=N)N)C(=O)N[C@@H](CCC(N)=O)C(=O)N[C@@H](CCCNC(=N)N)C(=O)N[C@@H](Cc1ccc(O)cc1)C(N)=O)[C@@H](C)O)[C@@H](C)O)C(C)C [Compound 119, N{alpha-4}-(3-methylbutanoyl)-N{epsilon-7}-[2-(2-{2-[2-(2-{2-[(4S)-4-carboxy-4-(17-carboxyheptadecanamido)butanamido]ethoxy}ethoxy)acetamido]ethoxy}ethoxy)acetamido]-[4A,7K,9E,11E,18Q,22V,23T,28Y,30W,31L]hPYY (4-36)]
